The source made the active and inactive calls. How the calls were made is not given here.

For this assay, the target named is Glycogen synthase kinase-3 beta splice variant X1 (Bos taurus) (UniProt A0A059UE90). Description: Inhibition of bovine cerebral TPK1 assessed as reduction in P-GS1 phosphorylation using [32gammaP]ATP incubated for 2 hrs by liquid scintillation counting method.
For `Cn1c(N2CCN[C@@H](c3ccc(N4CCOCC4)cc3)C2)nc(-c2ccncc2F)cc1=O`, the inhibition result was “Active”.
To `Cn1c(N2CCO[C@@H](c3ccc(N(C4CCCCC4)S(C)(=O)=O)cc3)C2)nc(-c2ccncc2F)cc1=O` belongs “Active”; to `CCN(c1ccc([C@H]2CN(c3nc(-c4ccncc4F)cc(=O)n3C)CCO2)cc1)C1CCCCC1`, “Active”; to `Cn1c(N2CCN[C@@H](c3ccc(N4CCC(N5CCCC5)CC4)cc3)C2)nc(-c2ccncc2F)cc1=O`, “Active”.
To `CC(C)c1ccc(-c2ccc([C@H]3CN(c4nc(-c5ccncc5F)cc(=O)n4C)CCN3)cc2)cc1` belongs “Active”.
Take `CC(=O)N[C@H]1CCN(c2ccc([C@H]3CN(c4nc(-c5ccncc5F)cc(=O)n4C)CCO3)cc2)C1`: the inhibition entry is “Active”.
With `CC(=O)N1CCN(CCOc2ccc([C@H]3CN(c4nc(-c5ccncc5F)cc(=O)n4C)CCO3)cc2)CC1`, the inhibition result was “Active”.
To `Cn1c(N2CCO[C@@H](c3ccc(N4CCC(N5CCCCC5)CC4)cc3)C2)nc(-c2ccncc2F)cc1=O` belongs “Active”; to `COc1ccc(C#N)cc1[C@H]1CN(c2nc(-c3ccncc3F)c(F)c(=O)n2C)CCO1`, “Active”.
Regarding `Cn1c(N2CCO[C@@H](c3ccc(OC4CCCCC4)cc3)C2)nc(-c2ccncc2F)cc1=O`, the inhibition entry was “Active”.
For the compound `Cn1c(N2CCO[C@@H](c3ccc(N4CCCCC4=O)cc3)C2)nc(-c2ccncc2F)cc1=O`, the inhibition result was “Active”.
Consider `CNc1ccc([C@H]2CN(c3nc(-c4ccncc4F)cc(=O)n3C)CCO2)cc1`, for which the inhibition result is “Active”.
As for `Cn1c(N2CCO[C@@H](c3ccc(N4CCC(O)C4)cc3)C2)nc(-c2ccncc2F)cc1=O` (stereo partly drawn), the inhibition entry is “Active”.
As for `Cn1c(N2CCO[C@@H](c3ccc(N4CCC[C@H]5CCCC[C@@H]54)cc3)C2)nc(-c2ccncc2F)cc1=O`, the entry is “Active”; as for `Cn1c(N2CCO[C@@H](c3ccc(N4CCOC4=O)cc3)C2)nc(-c2ccncc2F)cc1=O`, “Active”; as for `Cc1nnc(-c2ccc([C@H]3CN(c4nc(-c5ccncc5F)cc(=O)n4C)CCO3)cc2)o1`, “Active”.
In the case of `Cn1c(N2CCO[C@@H](c3ccc(OC[C@@H](O)CN4CCCC4)cc3)C2)nc(-c2ccncc2F)cc1=O`, the inhibition result was “Active”.
As for `Cn1c(N2CCN[C@@H](c3ccc(-c4ccc(Cl)cc4)cc3)C2)nc(-c2ccncc2F)cc1=O`, the entry is “Active”; as for `Cc1ccc(-c2ccc([C@H]3CN(c4nc(-c5ccncc5F)cc(=O)n4C)CCN3)cc2)cc1`, “Active”.
On to `Cn1c(N2CCO[C@@H](c3ccc(N4CCc5ccccc54)cc3)C2)nc(-c2ccncc2F)cc1=O`, for which the inhibition entry was “Active”.
As for `CSc1ccc(-c2ccc([C@H]3CN(c4nc(-c5ccncc5F)cc(=O)n4C)CCN3)cc2)cc1`, the entry is “Active”.
For `CC(C)Oc1ccc([C@H]2CN(c3nc(-c4ccncc4F)cc(=O)n3C)CCO2)cc1`, the inhibition result was “Active”.
For `Cn1c(N2CCN[C@@H](c3ccc(-c4ccc(OC(F)(F)F)cc4)cc3)C2)nc(-c2ccncc2F)cc1=O`, the inhibition result was “Active”.
As to `COC(C)(C)C(=O)N(C)c1ccc([C@H]2CN(c3nc(-c4ccncc4F)cc(=O)n3C)CCO2)cc1`, the inhibition result is “Active”.
In the case of `Cn1c(N2CCO[C@@H](c3ccc(F)c(N)c3)C2)nc(-c2ccncc2F)cc1=O`, the inhibition result is “Active”.
For the compound `Cn1c(N2CCO[C@@H](c3ccc(NC(=O)OCc4ccccc4)cc3)C2)nc(-c2ccncc2F)cc1=O`, the inhibition entry is “Active”.
Take `COc1ccc(-c2ccc([C@H]3CN(c4nc(-c5ccncc5F)cc(=O)n4C)CCN3)cc2)cc1OC`: the inhibition result was “Active”.
Consider `Cn1c(N2CCO[C@@H](c3ccc(N4CCN(CCO)C4=O)cc3)C2)nc(-c2ccncc2F)cc1=O`, for which the inhibition result was “Active”.
To `C[C@@H]1CN(c2ccc([C@H]3CN(c4nc(-c5ccncc5F)cc(=O)n4C)CCN3)cc2)C[C@H](C)O1` belongs “Active”; to `Cn1c(N2CCO[C@@H](c3ccc(NC(=O)C4(C)CC4)cc3)C2)nc(-c2ccncc2F)cc1=O`, “Active”; to `Cn1c(N2CCO[C@@H](c3ccc(N4CC[C@@H](N5CCCCC5)C4)cc3)C2)nc(-c2ccncc2F)cc1=O`, “Active”.
In the case of `Cn1c(N2CCO[C@@H](c3ccc(N4CCN(c5ccccc5)CC4)cc3)C2)nc(-c2ccncc2F)cc1=O`, the inhibition result was “Active”.
Take `Cn1c(N2CCO[C@@H](c3ccc(N(c4ccccn4)c4ccccn4)cc3)C2)nc(-c2ccncc2F)cc1=O`: the inhibition entry is “Active”.
As to `CCN(CC)CCOc1ccc([C@H]2CN(c3nc(-c4ccncc4F)cc(=O)n3C)CCO2)cc1`, the inhibition result was “Active”.
To `COc1cc(N(C)C)ccc1[C@H]1CN(c2nc(-c3ccncc3F)cc(=O)n2C)CCO1` belongs “Active”.
On to `Cn1c(N2CCO[C@@H](c3ccc(NC45CC6CC(CC(C6)C4)C5)cc3)C2)nc(-c2ccncc2F)cc1=O`, for which the inhibition entry is “Active”.
To `CN(C)c1ccc([C@H]2CN(c3nc(-c4ccncc4F)cc(=O)n3C)CCN2)cc1` belongs “Active”; to `CC(C)Nc1ccc([C@H]2CN(c3nc(-c4ccncc4F)cc(=O)n3C)CCO2)cc1`, “Active”; to `Cn1c(N2CCO[C@@H](c3ccc(N4CCOCC4)cc3)C2)nc(-c2ccncc2F)cc1=O`, “Active”.
To `Cn1c(N2CCO[C@@H](c3ccc(C(=O)NCc4ccccc4)cc3)C2)nc(-c2ccncc2F)cc1=O` belongs “Active”.
In the case of `Cn1c(N2CCO[C@@H](c3ccc(N)c(F)c3)C2)nc(-c2ccncc2F)cc1=O`, the inhibition result is “Active”.
With `CN(C)[C@@H]1CCN(c2ccc([C@H]3CN(c4nc(-c5ccncc5F)cc(=O)n4C)CCN3)cc2)C1`, the inhibition result was “Active”.
Consider `CN(C)[C@H]1CCN(c2ccc([C@H]3CN(c4nc(-c5ccncc5F)cc(=O)n4C)CCO3)cc2)C1`, for which the inhibition result was “Active”.
To `CC(=O)Nc1ccc([C@H]2CN(c3nc(-c4ccncc4F)cc(=O)n3C)CCO2)cc1` belongs “Active”.
Turning to `Cn1c(N2CCOC(c3ccccc3OCCCN)C2)nc(-c2ccncc2F)cc1=O` (stereo not drawn), the inhibition result is “Active”.
As to `Cn1c(N2CCO[C@@H](c3ccc(C(=O)NC4CCCCC4)cc3)C2)nc(-c2ccncc2F)cc1=O`, the inhibition entry is “Active”.
Consider `CC(=O)N(c1ccc([C@H]2CN(c3nc(-c4ccncc4F)cc(=O)n3C)CCO2)cc1)C(C)C`, for which the inhibition entry is “Active”.
For the compound `Cn1c(N2CCO[C@@H](c3ccc(NC(=S)Nc4cccnc4)cc3)C2)nc(-c2ccncc2F)cc1=O`, the inhibition result was “Active”.
With `Cn1c(N2CCN[C@@H](c3ccc(C#N)cc3)C2)nc(-c2ccncc2F)cc1=O`, the inhibition entry is “Active”.
Take `CCN(CC)c1ccc([C@H]2CN(c3nc(-c4ccncc4F)cc(=O)n3C)CCO2)c(OC)c1`: the inhibition result is “Active”.
To `Cn1c(N2CCN[C@@H](c3ccc(-c4ccc(C(C)(C)C)cc4)cc3)C2)nc(-c2ccncc2F)cc1=O` belongs “Active”; to `CC(O)c1ccc([C@H]2CN(c3nc(-c4ccncc4F)cc(=O)n3C)CCO2)cc1` (stereo partly drawn), “Active”; to `CN1CCN(CC(=O)Nc2ccc([C@H]3CN(c4nc(-c5ccncc5F)cc(=O)n4C)CCO3)cc2)CC1`, “Active”.

The values are drawn from ChEMBL document CHEMBL3727346, “6-(pyridinyl)-4-pyrimidone derivates as tau protein kinase 1 inhibitors” (2011).
